Values of other authors in patent US20250367228A1, “FORMULATIONS FOR BOOSTING NAD+ USING MULTIPLE BIOLOGICAL PATHWAYS CONCURRENTLY TO OVERCOME ENZYMATIC DEGRADATION AND IMPROVE DOWNSTREAM BENEFITS” (PROHEALTH, priority 2023, published 2025).

Tests used:
[1] = tested on: NAD+ blood concentrations; conditions: 1000 mg/day of NR, elderly subjects
CD38 = molecular target: T1, CD38 (Homo sapiens, UniProt P28907)
T1 sequence (P28907 1-300): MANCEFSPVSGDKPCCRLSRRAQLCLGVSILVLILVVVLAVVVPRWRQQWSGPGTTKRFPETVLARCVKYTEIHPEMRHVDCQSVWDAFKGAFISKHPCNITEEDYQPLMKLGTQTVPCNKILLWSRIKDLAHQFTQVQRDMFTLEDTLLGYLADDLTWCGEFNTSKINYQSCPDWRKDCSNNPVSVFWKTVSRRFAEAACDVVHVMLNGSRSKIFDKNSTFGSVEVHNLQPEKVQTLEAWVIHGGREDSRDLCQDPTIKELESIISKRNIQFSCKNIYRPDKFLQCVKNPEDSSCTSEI

Row | SMILES | increase of NAD+ blood concentrations [1] | inhibition of CD38 (CD38)
1 | NC(=O)c1ccc[n+]([C@@H]2O[C@H](CO)[C@@H](O)[C@H]2O)c1 [NR, Nicotinamide riboside] | two-fold | –
2 | O=c1c(O)c(-c2ccc(O)c(O)c2)oc2cc(O)cc(O)c12 [quercetin] | – | inhibited
3 | O=c1cc(-c2ccc(O)cc2)oc2cc(O)cc(O)c12 [apigenin] | – | inhibited
